Laboratory results: patent US11753408B2, “Compounds and method for blocking transmission of malarial parasite” (The United States of America, as represented by the …, priority 2016, dated 2023)
Where two headings read alike, the source gives them in different places.

How the values were obtained:
[1] = tested on: Asexual parasites of P. falciparum strain 3D7; test: In vitro drug activity on asexual parasites (SYBR Green assay); assay type: cell-based, Plasmodium falciparum
Method in brief: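 3D7 parasites at 0.5% parasitemia and 2% hematocrit were exposed to drugs (DMSO ≤0.5%) for 72 h under standard culture conditions, in duplicate. After freeze-thaw lysis, SYBR Green I lysis buffer was added for 30 min at room temperature, and fluorescence was read at 490/520 nm.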

[2] = tested on: Stage III-V gametocytes (blood stage P. falciparum parasites); test: In vitro drug activity on gametocytes (AlamarBlue viability assay); assay type: cell-based, Plasmodium falciparum; conditions: P. falciparum stage III-V gametocytes, 72 h incubation, AlamarBlue; read-out: Gametocyte EC50
Experimental: Cell culture. Asexual parasites of P. falciparum strain 3D7 were cultured as described previously [Trager W, et al., Journal of Parasitology 2005, 91: 484-486], Stage III-V gametocytes were selected and enriched with 3-day treatment with 50 mM N-acetylglucosamine (NAG) and the following Percoll density gradient centrifugation after gametocyte production [Tanaka T Q, et al., Molecular and Biochemical Parasitology, 2011, 111: 160-163], Gametocytes of HB3 and Dd2 strains were produced and then set up for assay in a similar process. HepG2 cells (ATCC, cat. no. 77400) were cultured in 175-cm^2 tissue culture flasks with 30 ml growth medium at 37° C. in a 5% CO2 humidified atmosphere. Growth medium was made with Dulbecco's Modified Eagle Medium with 10% fetal bovine serum (FBS). Growth medium was replaced every other day and cells were passed at 75% confluence.
Compound screening experiments were performed as previously described [Tanaka T Q et al., Molecular and Biochemical Parasitology, 2013, 3188: 20-25], Briefly, 2.5 μl/well incomplete medium was dispensed into each well of 1,536-well plates using the Multidrop Combi followed by 23 nl compound transferring using the NX-TR Pintool (WAKO Scientific Solutions, San Diego, Calif.). 2.5 μl/well of gametocytes was dispensed with a seeding density of 20,000 cells/well using the Multidrop Combi. The assay plates were incubated for 72 h at 37° C. with 5% CO2. After addition of 5 μl/well of 2× AlamarBlue dye (Life Technologies, cat. no. DALI 100), the plates were incubated for 24 h at 37° C. with 5% CO2 and were read in a fluorescence detection mode (Ex=525 nm, Em=598 nm) on a ViewLux plate reader (PerkinElmer).
Stage III-V gametocytes (blood stage P. falciparum parasites) were enriched with treatment with 50 mM N-acetylglucosamine (NAG) and Percoll density gradient centrifugation as described previously^1. Briefly, 2.5 μl/well incomplete medium was dispensed into each well of 1,536-well plates using the Multidrop Combi followed by 23 nl compound transfer using the NX-TR Pintool (WAKO Scientific Solutions, San Diego, Calif.). Then, 2.5 μl/well of gametocytes was dispensed with a seeding density of 20,000 cells/well using the Multidrop Combi. The assay plates were incubated for 72 h at 37° C. with 5% CO2. After addition of 5 μl/well of 2× AlamarBlue dye (Life Technologies, cat. no. DALI 100), the plates were incubated for 24 h at 37° C. with 5% CO2 and then were read in a fluorescence detection mode (Ex=525 nm, Em=598 nm) on a ViewLux plate reader (PerkinElmer).

Solubility at pH 7.4 = assay type: physicochemical
[3] = Microsomal stability (rat); assay type: in vitro ADME; conditions: rat microsomes
PAMPA permeability = assay type: in vitro ADME
mTOR = mTOR (Homo sapiens, UniProt P42345); test: mTOR activity (no method described); assay type: biochemical
[4] = P. falciparum 3D7 asexual parasites, 72 h, SYBR Green

Structure (SMILES)	EC50 [1, 4] [nM]	Sol @ pH 7.4 (ug/mL) (Solubility at pH 7.4)	Microsomal Stability (rat) T1/2 [3] [min]	EC50 [1] [nM]	PAMPA Permeability (PAMPA permeability) [×10⁻⁶ cm/s]	mTOR (mTOR) [µM]	Sol @ pH 7.4 (Solubility at pH 7.4) [ug/mL]	EC50 [2] [nM]
N#Cc1cc(-n2c(=O)ccc3cnc4ccc(-c5ccc(Cl)cc5)cc4c32)ccc1N1CCOCC1 [Compound 6]		0.02						102
Cc1ccc(C#N)cc1-n1c(=O)ccc2cnc3ccc(-c4ccc(CN(C)C)cc4)cc3c21 [Compound 7]	13.1	>66.00						25.1
COc1ccc(C#N)cc1-n1c(=O)ccc2cnc3ccc(-c4ccc(CN(C)C)cc4)cc3c21 [Compound 14]	113							425
N#Cc1cc(-n2c(=O)ccc3cnc4ccc(-c5ccc(F)cc5)cc4c32)ccc1N1CCNCC1 [Compound 15]	730							521
N#Cc1cc(-n2c(=O)ccc3cnc4ccc(-c5ccc(Cl)cc5)cc4c32)ccc1N1CCNCC1 [Compound 16]	23.7							69.4
CS(=O)(=O)c1ccc(-n2c(=O)ccc3cnc4ccc(-c5ccc(Cl)c(O)c5)cc4c32)cc1 [Compound 26]	37.8	1.2	>30.0					178
CCN(CC)S(=O)(=O)c1ccc(-n2c(=O)ccc3cnc4ccc(-c5ccc(Cl)cc5)cc4c32)cc1 [Compound 39]	414	<1.0	1.7					426
CN(C)Cc1ccc(-c2ccc3ncc4ccc(=O)n(-c5ccc(S(C)(=O)=O)c(N6CCOCC6)c5)c4c3c2)cc1 [Compound 62]	558	>84.00	>30.00					1320
CN(C)Cc1ccc(-c2ccc3ncc4ccc(=O)n(-c5ccc(S(C)(=O)=O)c(Cl)c5)c4c3c2)cc1 [Compound 63]	147							342
Cc1cc(C(=O)NCCN2CCCCC2)ccc1-n1c(=O)ccc2cnc3ccc(-c4ccc(Cl)cc4)cc3c21 [Compound 291]			3.1	211	773	4.975	0	
Cc1cc(C(=O)NCCN2CCCC2)ccc1-n1c(=O)ccc2cnc3ccc(-c4ccc(Cl)cc4)cc3c21 [Compound 295]			10.6	162	639	23.74	0	
Cc1cc(C(=O)NCCN2CCCC2)ccc1-n1c(=O)ccc2cnc3ccc(-c4ccc(F)cc4)cc3c21 [Compound 296]			7.1	477	510	18.6	0	
CN(CCNC(=O)c1ccc(-n2c(=O)ccc3cnc4ccc(-c5ccc(Cl)cc5)cc4c32)cc1)c1ccccc1 [Compound 298]			1.5	950	148	50	0	
CN(C)Cc1ccc(-c2ccc3ncc4ccc(=O)n(-c5ccc6c(c5)CC(=O)N6)c4c3c2)cc1 [Compound 350]	546	>68.0						1000
CCN1Cc2cc(-n3c(=O)ccc4cnc5ccc(-c6ccc(Cl)cc6)cc5c43)ccc2C1=O [Compound 351]	156							2160
O=C1Cc2ccc(-n3c(=O)ccc4cnc5ccc(-c6ccc(Cl)cc6)cc5c43)cc2N1 [Compound 376]	115	0						199

Further lines, with some results ahead:

EC50 [1, 4] [nM]	Sol @ pH 7.4 (ug/mL) (Solubility at pH 7.4)	Microsomal Stability (rat) T1/2 [3] [min]	EC50 [1] [nM]	PAMPA Permeability (PAMPA permeability) [×10⁻⁶ cm/s]	mTOR (mTOR) [µM]	Sol @ pH 7.4 (Solubility at pH 7.4) [ug/mL]	Structure (SMILES)	EC50 [2] [nM]
27.9							N#Cc1cccc(-n2c(=O)ccc3cnc4ccc(-c5ccc(Cl)cc5)cc4c32)c1 [Compound 1]	88.8
72.2	>66	18					Cc1c(C#N)cccc1-n1c(=O)ccc2cnc3ccc(-c4ccc(CN(C)C)cc4)cc3c21 [Compound 10]	469
55.8							COc1ccc(C#N)cc1-n1c(=O)ccc2cnc3ccc(-c4ccc(Cl)cc4)cc3c21 [Compound 12]	126
80.4	0						COc1ccc(C#N)cc1-n1c(=O)ccc2cnc3ccc(-c4ccc(F)cc4)cc3c21 [Compound 13]	135
34.6	<1.0	>30.0					N#Cc1ccc(-n2c(=O)ccc3cnc4ccc(-c5ccc(N)nc5)cc4c32)cc1 [Compound 22]	115
19.8	<1.0	>30.0					CS(=O)(=O)c1ccc(-n2c(=O)ccc3cnc4ccc(-c5ccc(F)cc5)cc4c32)cc1 [Compound 29]	88.5
23.1	<1.0	6.3					CCNS(=O)(=O)c1ccc(-n2c(=O)ccc3cnc4ccc(-c5ccc(Cl)cc5)cc4c32)cc1 [Compound 41]	89.4
62.5	<1.0	8.3					O=c1ccc2cnc3ccc(-c4ccc(Cl)cc4)cc3c2n1-c1ccc(S(=O)(=O)NC2CC2)cc1 [Compound 46]	260
146	>69.00	51.7					CN(C)Cc1ccc(-c2ccc3ncc4ccc(=O)n(-c5ccc([S+](C)[O-])cc5)c4c3c2)cc1 (stereo not shown) [Compound 54]	393
6.12	<1.0	>30.0					Nc1ccc(-c2ccc3ncc4ccc(=O)n(-c5ccc(S(N)(=O)=O)cc5)c4c3c2)cn1 [Compound 78]	11.6
150							Nc1ccc(-c2ccc3ncc4ccc(=O)n(-c5ccc(S(=O)(=O)NC6CC6)cc5)c4c3c2)cn1 [Compound 82]	167
		1.7	1140	3.4	15.56	0	Cc1cc(C(=O)NCCN(C)c2ccccc2)ccc1-n1c(=O)ccc2cnc3ccc(-c4ccc(Cl)cc4)cc3c21 [Compound 292]	
		22.9	146	241	6.103	0	Cc1cc(C(=O)NCCN2CCC2)ccc1-n1c(=O)ccc2cnc3ccc(-c4ccc(Cl)cc4)cc3c21 [Compound 293]	
		1.6	150	936	11.02	0	Cc1cc(C(=O)NCCCN2CCOCC2)ccc1-n1c(=O)ccc2cnc3ccc(-c4ccc(F)cc4)cc3c21 [Compound 297]	
		<1.0					COC(=O)CN1Cc2cc(-n3c(=O)ccc4cnc5ccc(-c6ccc(Cl)cc6)cc5c43)ccc2C1=O [Compound 345]	3830
18.6							O=C1Cc2cc(-n3c(=O)ccc4cnc5ccc(-c6ccc(Cl)cc6)cc5c43)ccc2N1 [Compound 346]	48.4
	0						NCCc1ccc(-c2ccc3ncc4ccc(=O)n(-c5ccc6c(c5)CNC6=O)c4c3c2)cc1 [Compound 377]	384
		>30	144	208	15.14	46.4	CN(C)CC#Cc1ccc2ncc3c(c2c1)n(-c1cccc(C#N)c1)c(=O)n3C [Compound 396]	
		>30	3660	11	0.3646	30.8	Cn1c(=O)n(-c2ccc(C(=O)O)cc2)c2c3cc(-c4ccc(Cl)cc4)ccc3ncc21 [Compound 435]	
